# From patent US8871971B2, “Protection of normal cells” (priority 2002, dated 2014)
# Tests used:
# [1] = tested on: Sulindac reductase activity in calf liver; assay: Sulindac reductase activity in calf liver fractions; assay type: biochemical, bovine; settings: mitochondria, S-100 and S-100 pellet of liver; preliminary evidence
# Protocol: Mammalian enzymes. […] To prepare mitochondria, the S10 pellets were suspended in 20 ml buffer A. […] The tubes were centrifuged at 24,000×g for 24 min. The pellets were resuspended in buffer A and centrifuged at 20,000×g for 15 min. The pellets (containing mitochondria) were suspended in 2 ml of buffer A. All fractions were stored at -80° C.
# MsrB [2] = molecular target: T1, MsrB (Escherichia coli, UniProt P0A746); assay: Reductase assay with TLC of products; settings: 100 nmoles substrate, 21 μg MsrB, 15 mM DTT, 2 hours 37° C.
# Protocol: (§2) Reductase assay and thin layer chromatography (TLC). […] Incubation was carried out for 2 hours at 37° C., at the end of which the duplicate samples were combined and dried in a speed-vacuum unit at room temperature. The residue was suspended in 50 μl of ethanol, which was then loaded onto a silica gel TLC plate. The plate was developed with butanol: acetic acid:water (60:15:25) as the solvent. The compounds were visualized by their yellow color.
# MsrA [3] = molecular target: T2, MsrA (Escherichia coli, UniProt P0A744); assay: Reductase assay with TLC of products; settings: 100 nmoles substrate, 3 μg MsrA, 15 mM DTT, 2 hours 37° C.
# Protocol: as §2
# MsrB [4] = molecular target: T1, MsrB; assay: Extraction reductase assay, sulindac as substrate; settings: 10 μg MsrB
# Excerpt: (§3) Bacterial enzymes. […] The enzyme preparations had specific activities similar those reported earlier.
# MsrA [5] = molecular target: T2, MsrA; assay: Extraction reductase assay, sulindac as substrate; settings: 250 ng MsrA
# Excerpt: as §3
# PC-12 cells = assay: Viability of PC-12 cells treated with MPP+ (trypan blue exclusion); assay type: cell-based; settings: for Dead cells (%) Exp 1 / Dead cells (%) Exp 2: 0.2 mM MPP+ 24 h
# Drosophila = assay: Survival of flies exposed to paraquat oxidative stress; assay type: in vivo; settings: for Flies alive: 2.5 mM paraquat, 2 mM sulindac; for Survival rate: 10 mM paraquat
# Protocol: Paraquat is a cytotoxic compound known to form superoxide radicals intracellularly. Three different concentrations of paraquat (i.e., 2.5 mM, 5 mM and 10 mM) were tested. […] After 3 days at 25° C., flies were transferred to test vials for counting.
# fRMsr = fRMsr (Escherichia coli, UniProt P76270); assay: Extraction reductase assay, sulindac as substrate; settings: 290 μg fRMsr
# Excerpt: as §3
# MsrA from E. coli = MsrA from E. coli (Escherichia coli, UniProt P0A744); assay: Reductase assay (NADPH oxidation): reduction of sulindac to sulindac sulfide by MsrA
# Protocol: Reductase assay. […] Incubations were performed at 37° C. for various times.
# At the end of incubation, 500 μl of 0.5 M Bis-Tris-Cl pH 5.5 and 3 ml of ethyl acetate were added. The tubes were mixed (vortexed) for 5 seconds (3 times). After separation, the organic phase was removed and another 3 ml of ethyl acetate were added. After mixing the organic phase was again removed.
# fSMsr = assay: Extraction reductase assay, sulindac as substrate; settings: 200 μg fSMsr
# Excerpt: as §3
# [6] = tested on: Membrane Msr (mem-R,S-Msr); assay: Extraction reductase assay, sulindac as substrate; assay type: biochemical, E. coli; settings: for Nmoles formed: 35 μg of membrane fraction
# MsrA1 = assay: Extraction reductase assay, sulindac as substrate; settings: 40 μg MsrA1
# Excerpt: as §3
# G93A transgenic mice = assay: G93A SOD1 transgenic mouse model of familial ALS; assay type: in vivo
# Protocol: Transgenic mice expressing a mutant form of SOD similar to that found in human ALS patients were used for this study. Transgenic male mice with a G93A human SOD1 (G1H/+) mutation (B6SJL-TgN (SOD1-G93A)1 Gur; Jackson Laboratories, ME) were used to breed with female B6SJL mice (Jackson Laboratories, ME). The F1 generations were genotyped for the G93A mutation with polymerase chain reaction (PCR) using tail DNA, and two specific primers from the SOD1 gene.
# Motor performance was assessed by Rotarod testing for each group and survival time was recorded.
# Motor function testing. Mice were trained for 2-3 days to become acquainted with the Rotarod apparatus (Columbus instruments, Columbus, Ohio). Rotarod performances were assessed in G93A mice starting at 60 days of age. The testing began with placing the mice on a rod that rotates at 12 rpms. The time period that the mice stayed on the rod before falling off was recorded as a measurement of the competence of their motor function. Three trials were performed, and the best result of the three trials was recorded representing the status of the motor performance. Mice were tested twice a week until they could no longer perform the task.
# Survival times. The initial sign of disease in G93A transgenic mice is a resting tremor that progresses to gait impairment, asymmetrical or symmetrical paralysis of the hind limbs, and ultimately complete paralysis at the end stage. Mice were sacrificed when they were unable to roll over within 20 seconds after being pushed on their side. This time point was determined to be the time of survival, at which time the mice were sacrificed.
# Light microscopic immunocytochemistry. Mice were perfused transcardially with cold 0.1M phosphate-buffered saline (PBS) for 1 minute followed by cold 4% paraformaldehyde in PBS for 10 minutes. The spinal cords were removed rapidly, blocked coronally, and post-fixed in 4% paraformaldehyde in PBS for 6 hours. Blocks were cryo-protected in 30% sucrose for 24 hours and were sectioned on a cryostat at a thickness of 35 micrometers. All protocols were conducted within NIH guidelines for animal research and were approved by the Institutional Animal Care and Use Committee (IACUC).
# Serial transverse sections (50 μm thick) were cut on a cryostat and collected for Nissl staining. Every fourth section was analyzed for neuronal volume and number using the optical fractionator and nucleator probes of the Stereo Investigator System (Microbrightfield, Colchester, Vt.). Six tissue sections of the lumbar spinal cord from each mouse were analyzed. All cells were counted from within the ventral horn below a horizontal line across the gray matter through the ventral border of the central canal. Photomicrographs were taken on a Zeiss Axiophot II microscope.
# Statistical analysis. Statistical analysis of survival was performed using Kaplan-Meier test for survival measured in postnatal days, Fisher's Test for mean age of death analysis, and Scheffe test for motor performance.
# Normal Lung cells [7] = assay: Viability of normal lung cells exposed to TBHP (MTS assay); assay type: cell-based; settings: 500 μM for 48 hr, then TBHP 2 hr
# Protocol: Normal lung cells were treated with 500 μM sulindac-(R+S; near 50% each), 500 μM sulindac-R (>99% R; <1% S) or 500 μM sulindac-S (>99% S; <1% R) for 48 hr. The sulindac-R and sulindac-S samples were obtained from a racemic mixture of epimers using a chiral column analogous to the process described above. The cells were washed and then exposed to the indicated concentration of tert-Butyl Hydroperoxide (TBHP) for 2 hr. Cell viability was measured using the standard MTS assay. A background absorbance of 0.12 was subtracted from average of four replicate samples. The data are plotted as a bar graph because the concentrations are not in equal intervals. The error bars are the SEM of four replicate samples. The data are presented on three separate graphs using the untreated samples from that plate.
# rat hearts = assay: Ischemia/reperfusion in Langendorff heart, LDH release; assay type: in vivo, rats; settings: 0.1 mg in diet for 2 days; ischemia 45 minutes, reperfusion 2 hours
# Protocol: […]. […] The hearts were removed, exposed to ischemia for 45 minutes and then perfused for 2 hours (reperfusion) using a Langendorff procedure. The cellular damage was measured by assaying for the release of lactic dehydrogenase (LDH).
# Normal Cardiomyocyte = assay: Conversion of sulindac epimers to the sulfide in cells; assay type: in vitro ADME; settings: 200 μM epimer, 4 hours, serum-free medium
# Protocol: (§1) After incubation, the cells are collected, rinsed and lysed with acetonitrile. The cytosolic contents are separated on a C-18 column.
# Normal Lung cells [8] = assay: as above; assay type: in vitro ADME; settings: 200 μM epimer, 4 hours, serum-free medium
# Protocol: as §1
# [9] = tested on: Cancer Skin (skin SCC) cells; assay: as above; assay type: in vitro ADME; settings: 200 μM epimer, 4 hours, serum-free medium
# Protocol: as §1
# HeLa cells = assay: as above; assay type: in vitro ADME; settings: 200 μM epimer, 4 hours, serum-free medium
# Protocol: as §1
# Cancer Lung cells = assay: as above; assay type: in vitro ADME; settings: 200 μM epimer, 4 hours, serum-free medium
# Protocol: as §1
# [10] = 0.1 mM sulindac 48 h pretreatment
# [11] = 0.2 mM sulindac 48 h pretreatment
# [12] = 0.5 mM sulindac 48 h pretreatment
# [13] = 0.5 mM sulindac pretreatment, 0.2 mM MPP+
# [14] = Tube 2: no MsrA, sulindac 5 μl (0.2M), thioredoxin 3 μl
# [15] = Tube 3: MsrA 1 μl (100 ng/μl), 20 min
# [16] = Tube 4: MsrA 2 μl (100 ng/μl), 20 min
# [17] = Tube 5: MsrA 4 μl (100 ng/μl), 20 min
# [18] = Tube 7: MsrA 2 μl (100 ng/μl), 10 min
# [19] = Tube 8: MsrA 2 μl (100 ng/μl), 30 min
# MsrA from E. coli, sequence (P0A744 whole entry): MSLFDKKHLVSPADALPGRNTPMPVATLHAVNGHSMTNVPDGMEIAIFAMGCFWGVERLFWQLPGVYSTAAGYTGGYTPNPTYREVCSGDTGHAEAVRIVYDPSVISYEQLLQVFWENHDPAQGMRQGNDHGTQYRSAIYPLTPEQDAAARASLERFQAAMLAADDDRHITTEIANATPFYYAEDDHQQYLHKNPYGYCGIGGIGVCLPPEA
# T2 sequence (P0A744 whole entry): as above
# T1 sequence (P0A746 whole entry): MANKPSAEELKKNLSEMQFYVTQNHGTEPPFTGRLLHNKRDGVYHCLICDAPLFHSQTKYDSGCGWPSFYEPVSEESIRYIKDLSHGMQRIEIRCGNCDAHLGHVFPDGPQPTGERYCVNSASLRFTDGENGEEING
# fRMsr, sequence (P76270 whole entry): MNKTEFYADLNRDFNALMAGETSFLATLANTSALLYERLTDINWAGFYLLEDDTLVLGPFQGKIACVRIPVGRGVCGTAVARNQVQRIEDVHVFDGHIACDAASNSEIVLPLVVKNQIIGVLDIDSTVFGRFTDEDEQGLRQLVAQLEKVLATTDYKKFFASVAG
structure (smiles),measurement,setting,value
C[S@@+]([O-])CC[C@H](N)C(=O)O [Met-R—(O)],Effect of added excess Met(O) epimer on sulindac reductase activity,[1],only a slight effect
CSCCC(NC(=O)CC1=C(C)/C(=C/c2ccc([S+](C)[O-])cc2)c2ccc(F)cc21)C(=O)O (stereo not shown) [SMO],Substrate for MsrB (reduction products on TLC),MsrB [2],substrate for MsrB
same,Substrate for MsrA (reduction products on TLC),MsrA [3],substrate for MsrA
CC1=C(CC(=O)O)c2cc(F)ccc2/C1=C\c1ccc([S+](C)[O-])cc1 (stereo not shown) [Sulindac],Units of activity,MsrB [4],0 nmoles of SS formed per hour
same,Units of activity,MsrA [5],11.3 nmoles of SS formed per hour
same,Substrate for MsrB (reduction products on TLC),MsrB [2],not a substrate for MsrB
same,Dead cells (%) Exp 1,PC-12 cells; [10],67%
same,Dead cells (%) Exp 2,PC-12 cells; [10],74%
same,Dead cells (%) Exp 1,PC-12 cells; [11],55%
same,Dead cells (%) Exp 2,PC-12 cells; [11],39%
same,Dead cells (%) Exp 1,PC-12 cells; [12],34%
same,Dead cells (%) Exp 2,PC-12 cells; [12],35%
same,Cell death,PC-12 cells; [13],approximately 35%
same,Cell survival,PC-12 cells; [13],~65%
same,Effect on viability of the cells,PC-12 cells; in the absence of MPP+,no effect on the viability of the cells
same,Flies alive,Drosophila; 3 day,approximately 95%
same,Flies alive,Drosophila; 6 day,~60%
same,Survival rate,Drosophila; after 2 days,~85%
same,Survival rate,Drosophila; after 3 days,~57%
same,Substrate for MsrA (reduction products on TLC),MsrA [3],substrate for MsrA
same,Units of activity,fRMsr,0 nmoles of SS formed per hour
same,OD340,MsrA from E. coli; [14],0.660
same,Sulindac sulfide,MsrA from E. coli; [14],0 nmol
same,OD340,MsrA from E. coli; [15],0.622
same,Sulindac sulfide,MsrA from E. coli; [15],5.8 nmol
same,Δ OD340,MsrA from E. coli; [15],0.038
same,OD340,MsrA from E. coli; [16],0.586
same,Sulindac sulfide,MsrA from E. coli; [16],11.2 nmol
same,Δ OD340,MsrA from E. coli; [16],0.074
same,OD340,MsrA from E. coli; [17],0.522
same,Sulindac sulfide,MsrA from E. coli; [17],21.0 nmol
same,Δ OD340,MsrA from E. coli; [17],0.138
same,OD340,"MsrA from E. coli; Tube 6: MsrA 2 μl, no thioredoxin, 20 min",0.684
same,OD340,MsrA from E. coli; [18],0.626
same,Sulindac sulfide,MsrA from E. coli; [18],5.2 nmol
same,Δ OD340,MsrA from E. coli; [18],0.034
same,OD340,MsrA from E. coli; [19],0.531
same,Sulindac sulfide,MsrA from E. coli; [19],19.4 nmol
same,Δ OD340,MsrA from E. coli; [19],0.129
same,Units of activity,fSMsr,0 nmoles of SS formed per hour
same,Nmoles formed,[6],2.75 nmol
same,Units of activity,[6]; 50 μg membrane fraction,5.1 nmoles of SS formed per hour
same,Units of activity,MsrA1,<0.9 nmoles of SS formed per hour
same,Motor performance (Rotarod performance times),G93A transgenic mice; 300 PPM and 450 PPM groups vs G93A controls,significant improvement in motor performance
same,Mean survival time,G93A transgenic mice; 300 PPM in food from postnatal day 30,135.17 ± 11.4 days
same,Increase in survival over control mice,G93A transgenic mice; 450 PPM in food,7%
same,Average survival,G93A transgenic mice; 450 PPM in food from postnatal day 30,131.17 ± 10.9 days
same,"Scheffe for motor performance, Mean Diff.",G93A transgenic mice; Controls vs Sulindac 300 PPM,−59.443
same,"Scheffe for motor performance, Mean Diff.",G93A transgenic mice; Controls vs Sulindac 450 PPM,−73.119
same,"Scheffe for motor performance, Mean Diff.",G93A transgenic mice; Sulindac 300 PPM vs Sulindac 450 PPM,−13.676
same,Counts of motor neurons in spinal cord sections,G93A transgenic mice; vs G93A controls,significantly higher counts of motor neurons
same,TBHP concentration after which protection declined rapidly,Normal Lung cells [7],80 to 100 µM
"CC1=C(CC(=O)O)c2cc(F)ccc2/C1=C\c1ccc([S@@+](C)[O-])cc1 [R-epimer, R-sulindac sulfoxide]",Protection of hearts from ischemia/reperfusion damage (LDH release),rat hearts,protects their hearts from oxidative damage
same,Nmoles formed,[6],2.41 nmol
same,Protection against TBHP compared with other forms,Normal Lung cells [7],protects better as compared to sulindac-(R+S) or Sulindac-S
same,TBHP concentration up to which protection is seen,Normal Lung cells [7],340 µM
C[S+]([O-])CC[C@H](N)C(=O)O (stereo partly shown) [Met-S—(O)],Effect of added excess Met(O) epimer on sulindac reductase activity,[1],inhibited the activity in all three fractions
"CC1=C(CC(=O)O)c2cc(F)ccc2/C1=C\c1ccc([S@+](C)[O-])cc1 [S-epimer, S-sulindac sulfoxide]",Amount formed (picomoles),Normal Cardiomyocyte,120.9 picomoles
same,Amount formed (picomoles),Normal Lung cells [8],35 picomoles
same,Amount formed (picomoles),[9],57 picomoles
same,Amount formed (picomoles),HeLa cells,7.9 picomoles
same,Amount formed (picomoles),Cancer Lung cells,17.7 picomoles
same,TBHP concentration at which error bars begin to overlap,Normal Lung cells [7],~220 µM
same,TBHP concentration up to which protection is seen,Normal Lung cells [7],~180 µM
